Reference: US7288555B2 (priority 2001, dated 2007)

Experiments:
[1] = test system: vine downy mildew (Plasmopara viticola); conditions: in vivo
[2] = test system: potato blight (Phytophthora infestans); format: in vivo; conditions: Solanum tuberosum Bintje, infection 48 h after treatment, read after 6 days, 3 repeats, confidence interval in brackets; for ED50 (confidence interval): effective dose providing 50% control; for ED70 (confidence interval): effective dose providing 70% control; for ED90 (confidence interval): effective dose providing 90% control

O=C(NCc1ncc(C(F)(F)F)cc1Cl)c1c(Cl)cccc1Cl [Compound A, 2,6-dichloro-N-{[3-chloro-5-(trifluoromethyl)-2-pyridinyl]methyl}benzamide]
ED50 (confidence interval) [1]: 6.6 (4-10.9) mg/l
ED70 (confidence interval) [1]: 12.5 (8-19.6) mg/l
ED50 (confidence interval) [2]: 19.9 (12-33) mg/l
ED70 (confidence interval) [2]: 43.5 (24.5-77.2) mg/l
ED90 (confidence interval) [2]: 151.2 (61.5-371.8) mg/l

Cc1ccc(C(C)NC(=O)[C@@H](NC(=O)OC(C)C)C(C)C)cc1 (stereo partly shown) [Compound B, iprovalicarb]
ED50 (confidence interval) [1]: 7.3 (4.9-11) mg/l
ED70 (confidence interval) [1]: 17.5 (11.8-25.9) mg/l
ED50 (confidence interval) [2]: 27.8 (18.3-42.2) mg/l
ED70 (confidence interval) [2]: 69.3 (43.7-109.9) mg/l
ED90 (confidence interval) [2]: 296.6 (136.2-646) mg/l
